Test results as given in patent US20130121930A1, “Use of Glyceryl Trinitrate for Treating Hematomas” (priority 2010, published 2013).

Tested on: hematomas
Assay: Topically applied GTN on hematomas, general finding compared to untreated hematoma
Type: in vivo
Text: Instead of darkening of the skin, the healing occurs with a green, followed by a yellow, coloration of the affected skin area.

[1] = 1.2 to 6 mg GTN on the day of injury, then daily 0.8 to 1.6 mg GTN, compared to an untreated hematoma

O=[N+]([O-])OCC(CO[N+](=O)[O-])O[N+](=O)[O-] [GTN, glyceryl trinitrate]
typical darkening of the affected skin sites (1.2 to 6 mg GTN on the day of injury, then daily 0.8 to 1.6 mg GTN): prevents the typical darkening
individual healing phases [1]: significantly shortened
overall healing period for the treated hematomas [1]: reduced by one-half
healing of hematomas (topically applied): greatly accelerates
